{
  "source": "ChEMBL document CHEMBL1127385",
  "about": "“Synthesis and diuretic activity of alkyl- and arylguanidine analogs of N,N'-dicyclohexyl-4-morpholinecarboxamidine in rats and dogs” (J Med Chem, 1994)",
  "key": {"Rattus norvegicus [1]": {"tested_on": "Rattus norvegicus", "assay": "Total electrolytic excretion of chlorine in urine of rats after peroral administration of 84.5 uM/Kg of drug", "format": "ADME, organism-based", "details": "in vivo, po"}, "Rattus norvegicus [2]": {"tested_on": "Rattus norvegicus", "assay": "Total electrolytic excretion of chlorine in urine of rats after peroral administration of 28.2 uM/Kg of drug", "format": "ADME, organism-based", "details": "in vivo, po"}, "Rattus norvegicus [3]": {"tested_on": "Rattus norvegicus", "assay": "Total electrolytic excretion of chlorine in urine of rats after peroral administration of 282 uM/Kg of drug", "format": "ADME, organism-based", "details": "in vivo, po"}, "Rattus norvegicus [4]": {"tested_on": "Rattus norvegicus", "assay": "Total electrolytic excretion of potassium in urine of rats after peroral administration of 84.5 uM/Kg of drug", "format": "ADME, organism-based", "details": "in vivo, po"}, "Rattus norvegicus [5]": {"tested_on": "Rattus norvegicus", "assay": "Total electrolytic excretion of potassium in urine of rats after peroral administration of 28.2 uM/Kg of drug", "format": "ADME, organism-based", "details": "in vivo, po"}, "Rattus norvegicus [6]": {"tested_on": "Rattus norvegicus", "assay": "Total electrolytic excretion of potassium in urine of rats after peroral administration of 282 uM/Kg of drug", "format": "ADME, organism-based", "details": "in vivo, po"}, "Rattus norvegicus [7]": {"tested_on": "Rattus norvegicus", "assay": "Total electrolytic excretion of sodium in urine of rats after peroral administration of 84.5 uM/Kg of drug", "format": "ADME, organism-based", "details": "in vivo, po"}, "Rattus norvegicus [8]": {"tested_on": "Rattus norvegicus", "assay": "Tested for the diuretic activity by measuring the urinary volume after peroral administering 84.5 uM/Kg of drug in rats", "format": "ADME, organism-based, Urine", "details": "in vivo, po"}, "Rattus norvegicus [9]": {"tested_on": "Rattus norvegicus", "assay": "Total electrolytic excretion of sodium in urine of rats after peroral administration of 28.2 uM/Kg of drug", "format": "ADME, organism-based", "details": "in vivo, po"}, "Rattus norvegicus [10]": {"tested_on": "Rattus norvegicus", "assay": "Total electrolytic excretion of sodium in urine of rats after peroral administration of 282 uM/Kg of drug", "format": "ADME, organism-based", "details": "in vivo, po"}, "Rattus norvegicus [11]": {"tested_on": "Rattus norvegicus", "assay": "Tested for the diuretic activity by measuring the urinary volume after peroral administering 28.2 uM/Kg of drug in rats", "format": "ADME, organism-based, Urine", "details": "in vivo, po"}, "Rattus norvegicus [12]": {"tested_on": "Rattus norvegicus", "assay": "Tested for the diuretic activity by measuring the urinary volume after peroral administering 282 uM/Kg of drug in rats", "format": "ADME, organism-based, Urine", "details": "in vivo, po"}, "Rattus norvegicus [13]": {"tested_on": "Rattus norvegicus", "assay": "Ratio of Total electrolytic excretion of sodium and potassium in urine of rats after peroral administration of 28.2 uM/Kg of drug", "format": "ADME, organism-based", "details": "in vivo, po"}, "Rattus norvegicus [14]": {"tested_on": "Rattus norvegicus", "assay": "Ratio of Total electrolytic excretion of sodium and potassium in urine of rats after peroral administration of 282 uM/Kg of drug", "format": "ADME, organism-based", "details": "in vivo, po"}, "Rattus norvegicus [15]": {"tested_on": "Rattus norvegicus", "assay": "Ratio of Total electrolytic excretion of sodium and potassium in urine of rats after peroral administration of 84.5 uM/Kg of drug", "format": "ADME, organism-based", "details": "in vivo, po"}, "Rattus norvegicus [16]": {"tested_on": "Rattus norvegicus", "assay": "Total electrolytic excretion of chlorine in urine of rats after peroral administration of 84.7 uM/Kg of drug", "format": "ADME, organism-based", "details": "in vivo, po"}, "Canis familiaris [17]": {"tested_on": "Canis familiaris", "assay": "Total electrolytic excretion of potassium in urine of dogs after intravenous administration of 8.47 uM/Kg of drug", "format": "ADME, organism-based, Canis lupus familiaris", "details": "dog, in vivo"}, "Rattus norvegicus [18]": {"tested_on": "Rattus norvegicus", "assay": "Total electrolytic excretion of chlorine in urine of rats after peroral administration of 28.22 uM/Kg of drug", "format": "ADME, organism-based", "details": "in vivo, po"}, "Rattus norvegicus [19]": {"tested_on": "Rattus norvegicus", "assay": "Total electrolytic excretion of potassium in urine of rats after peroral administration of 84.7 uM/Kg of drug", "format": "ADME, organism-based", "details": "in vivo, po"}, "Canis familiaris [20]": {"tested_on": "Canis familiaris", "assay": "Total electrolytic excretion of chlorine in urine of dogs after intravenous administration of 8.47 uM/Kg of drug", "format": "ADME, organism-based, Canis lupus familiaris", "details": "dog, in vivo"}, "Rattus norvegicus [21]": {"tested_on": "Rattus norvegicus", "assay": "Total electrolytic excretion of potassium in urine of rats after peroral administration of 28.22 uM/Kg of drug", "format": "ADME, organism-based", "details": "in vivo, po"}, "Rattus norvegicus [22]": {"tested_on": "Rattus norvegicus", "assay": "Total electrolytic excretion of sodium in urine of rats after peroral administration of 84.7 uM/Kg of drug", "format": "ADME, organism-based", "details": "in vivo, po"}, "Rattus norvegicus [23]": {"tested_on": "Rattus norvegicus", "assay": "Tested for the diuretic activity by measuring the urinary volume after peroral administering 84.7 uM/Kg of drug in rats", "format": "ADME, organism-based, Urine", "details": "in vivo, po"}, "Canis familiaris [24]": {"tested_on": "Canis familiaris", "assay": "Tested for the diuretic activity by measuring the urinary volume after intravenous administering 8.47 uM/Kg of drug in dogs", "format": "ADME, organism-based, Canis lupus familiaris, Urine", "details": "dog, in vivo"}, "Rattus norvegicus [25]": {"tested_on": "Rattus norvegicus", "assay": "Ratio of Total electrolytic excretion of sodium and potassium in urine of rats after peroral administration of 84.7 uM/Kg of drug", "format": "ADME, organism-based", "details": "in vivo, po"}, "Rattus norvegicus [26]": {"tested_on": "Rattus norvegicus", "assay": "Ratio of Total electrolytic excretion of sodium and potassium in urine of rats after intravenous administration of 8.47 uM/Kg of drug", "format": "ADME, organism-based", "details": "in vivo"}, "Canis familiaris [27]": {"tested_on": "Canis familiaris", "assay": "Total electrolytic excretion of sodium in urine of dogs after intravenous administration of 8.47 uM/Kg of drug", "format": "ADME, organism-based, Canis lupus familiaris", "details": "dog, in vivo"}},
  "data": [
    {"smiles": "C1CCC(/N=C(/NC2CCCCC2)N2CCCCC2)CC1", "values": [
      {"measurement": "Excretion Cl-", "setting": "Rattus norvegicus [1]", "result": 1.46, "unit": "m equiv"},
      {"measurement": "Excretion Cl-", "setting": "Rattus norvegicus [2]", "result": 1.18, "unit": "m equiv"},
      {"measurement": "Excretion Cl-", "setting": "Rattus norvegicus [3]", "result": 0.77, "unit": "m equiv"},
      {"measurement": "Excretion K+", "setting": "Rattus norvegicus [4]", "result": 0.35, "unit": "m equiv"},
      {"measurement": "Excretion K+", "setting": "Rattus norvegicus [5]", "result": 0.29, "unit": "m equiv"},
      {"measurement": "Excretion K+", "setting": "Rattus norvegicus [6]", "result": 0.21, "unit": "m equiv"},
      {"measurement": "Excretion Na+", "setting": "Rattus norvegicus [7]", "result": 1.33, "unit": "m equiv"},
      {"measurement": "V", "setting": "Rattus norvegicus [8]", "result": 7.4, "unit": "mL"},
      {"measurement": "Excretion Na+", "setting": "Rattus norvegicus [9]", "result": 1.13, "unit": "m equiv"},
      {"measurement": "Excretion Na+", "setting": "Rattus norvegicus [10]", "result": 0.76, "unit": "m equiv"},
      {"measurement": "V", "setting": "Rattus norvegicus [11]", "result": 6.5, "unit": "mL"},
      {"measurement": "V", "setting": "Rattus norvegicus [12]", "result": 3.7, "unit": "mL"},
      {"measurement": "Ratio", "setting": "Rattus norvegicus [13]", "result": 4},
      {"measurement": "Ratio", "setting": "Rattus norvegicus [14]", "result": 3.7},
      {"measurement": "Ratio", "setting": "Rattus norvegicus [15]", "result": 3.8}
    ]},
    {"smiles": "Fc1ccc(/N=C(/Nc2ccc(F)cc2)N2CCOCC2)cc1", "values": [
      {"measurement": "Excretion Cl-", "setting": "Rattus norvegicus [16]", "result": 1.82, "unit": "m equiv"},
      {"measurement": "Excretion K+", "setting": "Canis familiaris [17]", "result": 1.1, "unit": "m equiv"},
      {"measurement": "Excretion Cl-", "setting": "Rattus norvegicus [18]", "result": 1.32, "unit": "m equiv"},
      {"measurement": "Excretion Cl-", "setting": "Rattus norvegicus [3]", "result": 1.7, "unit": "m equiv"},
      {"measurement": "Excretion K+", "setting": "Rattus norvegicus [19]", "result": 0.48, "unit": "m equiv"},
      {"measurement": "Excretion Cl-", "setting": "Canis familiaris [20]", "result": 5.7, "unit": "m equiv"},
      {"measurement": "Excretion K+", "setting": "Rattus norvegicus [21]", "result": 0.39, "unit": "m equiv"},
      {"measurement": "Excretion K+", "setting": "Rattus norvegicus [6]", "result": 0.24, "unit": "m equiv"},
      {"measurement": "Excretion Na+", "setting": "Rattus norvegicus [22]", "result": 1.9, "unit": "m equiv"},
      {"measurement": "V", "setting": "Rattus norvegicus [23]", "result": 13.6, "unit": "mL"},
      {"measurement": "Excretion Na+", "setting": "Rattus norvegicus [9]", "result": 1.29, "unit": "m equiv"},
      {"measurement": "Excretion Na+", "setting": "Rattus norvegicus [10]", "result": 2.05, "unit": "m equiv"},
      {"measurement": "V", "setting": "Canis familiaris [24]", "result": 58, "unit": "mL"},
      {"measurement": "V", "setting": "Rattus norvegicus [11]", "result": 9.2, "unit": "mL"},
      {"measurement": "V", "setting": "Rattus norvegicus [12]", "result": 16.2, "unit": "mL"},
      {"measurement": "Ratio", "setting": "Rattus norvegicus [13]", "result": 3.3},
      {"measurement": "Ratio", "setting": "Rattus norvegicus [14]", "result": 8.5},
      {"measurement": "Ratio", "setting": "Rattus norvegicus [25]", "result": 4},
      {"measurement": "Ratio", "setting": "Rattus norvegicus [26]", "result": 5.7},
      {"measurement": "Excretion Na+", "setting": "Canis familiaris [27]", "result": 6, "unit": "m equiv"}
    ]}
  ]
}
